From US20070072815A1, “Methods and kits to increase the efficiency of oligonucleotide-directed nucleic acid sequence alteration” (priority 2004, published 2007)
Several values for one entry are separate records, joined by “and”; a condition that tells them apart may be missing. Equal values may be shown once.

Assays:
[1] = system: HYGeGFP fusion gene target in Saccharomyces cerevisiae strain LSY678; test: Hygromycin resistance gene correction in yeast LSY678; type: cell-based; conditions: synchronized with alpha factor and released into HU, specific time after release from G1/S border
Text: An alternative model system to measure oligonucleotide-directed sequence alteration has been developed in the yeast Saccharomyces cerevisiae strain LSY678 (MATa leu 2-3, 112 trpl-1 ura 3-1 his 3-1, 15 ade2-1 can 1-100). The strain has integrated an HYGeGFP fusion gene target containing a single point mutation at base pair 137 in the coding region of the hygromycin gene, rendering it unable to confer resistance to the antibiotic. Oligonucleotide-directed sequence alteration can repair the mutation and restore hygromycin resistance. For example, in one experiment, LSY678 cells are synchronized with alpha factor and released, or synchronized with alpha factor and released into hydroxyurea (HU), prior to electroporation with a correcting oligonucleotide. The combination of alpha factor and HU increased correction efficiency 25-fold as compared to cells treated with neither agent, but only when oligonucleotide treatment is performed at a specific period of time after release from the G1/S border. See also U.S. patent application publication no. 20030207451.

[2] = system: DLD-1-1 cells; test: BrdU incorporation (actively replicating forks); type: cell-based; conditions: 24 hours, 1 mM HU or 3 μM VP16
Description: For cell cycle analysis, 1×10^6 cells are plated 24 hrs before the treatment with drugs and after 24 hrs of treatment, cells are trypsinized, resuspended in 300 μl cold PBS and fixed by adding 700 μl cold ethanol. Cells are then resuspended in 1 ml of PBS containing 500 µg/ml RNaseA and […] propidium iodide and analyzed for DNA content.
The resulting cells are then either analyzed by FACS, or the percentage of cells in S phase is determined by BrdU incorporation. FIG. 8 presents the results of both sets of experiments.
As stated above, the lack of stimulation observed in cells treated with AraC could be explained by the reduced number of cells passing through S phase or the absence of actively replicating forks. If true, we might predict that a rise in the gene repair frequency would appear if the cells are released from the AraC block and replication forks are allowed to restart prior to the electroporation of the oligonucleotide. We test this prediction by treating the cells with AraC for 24 hrs and then releasing them by washing out the drug at specific times. We measure the level of BrdU incorporation at the time of electroporation and evaluate the frequency of correction 48 hrs later.

[3] = system: DLD-1-1 cells; test: Cell viability / cell death by propidium iodide FACS; conditions: HU or VP16 prior to electroporation, propidium iodide
Description: Flow cytometry analysis: eGFP fluorescence of corrected cells is measured by a Becton Dickinson FACSCalibur™ flow cytometer (Becton Dickinson, Rutherford, N.J.). Cells are harvested 48 hrs after electroporation and resuspended in FACS buffer (0.5% BSA, 2 mM EDTA, 2 μg/ml propidium iodide in PBS). More specifically, the program is set for the appropriate cell size (forward scatter versus side scatter) and the population of single-cells is gated for analysis. Using the negative control (minus PI, minus GFP) the background fluorescence was set by positioning the cells in the 10^1 decade of the dot plot by adjusting the voltage for FL1 (GFP) and FL2 (PI). The composition is then set for multi-fluorochrome experiments using a GFP control sample containing no PI and increasing the compensation to bring the signal toward the FL1 parameter. Finally, the last control, PI and no GFP is used to increase the compensation to bring the signal toward the FL2 parameter. Samples of 50,000 cells each are analyzed and those cells being GFP positive and PI negative are scored as corrected cells.
For cells that were not previously treated with caffeine, caffeine is added to the media to a final concentration of 4 mM in the 60 mM dish immediately following electroporation (the “recovery phase”). For cells that were pre-treated with caffeine, there is no addition of caffeine during the recovery phase. After 24 hrs of recovery, the media is changed and caffeine (4 mM final concentration) is added back to the culture. After 48 hrs of recovery, the samples are read by FACS: eGFP fluorescence reflects gene alteration (correction), and propidium iodide (PI) staining reflects cellular viability.

[4] = system: mutant eGFP gene in DLD-1-1 cells; test: eGFP gene correction (oligonucleotide-directed sequence alteration) in DLD-1-1 cells, FACS readout; type: cell-based

## NC(=O)NO [HU, hydroxyurea]
[1]
  increase of correction efficiency compared to cells treated with neither agent: 25 fold
[2]
  percentage of cells in S phase by BrdU: 77%
[3]
  effect on viability: viability is moderately reduced
[4]; 1 mM HU 24 hours before electroporation, asynchronous cells
  correction efficiency (frequency of gene repair): 2.2% and ~3%
[4]; 1 mM HU or 10 mM thymidine, DTB synchronized vs asynchronous
  correction efficiency in synchronized cells relative to asynchronous cells: more than three times
[4]; HU 0.3-5 mM or VP16 0.5-10 μM for 24 hours prior to electroporation
  effect of dose on correction efficiency: increase correction efficiency in a dose-dependent manner
